Reference: patent publication US12692283B2, “Lignan derivative, preparation method therefor and use thereof” (SHANGHAI INSTITUTE OF MATERIA MEDICA, CHINESE ACADEMY OF …, priority 2021, dated 2026)

Experiments:
MLO-Y4 senescent cells = experiment: Viability of doxorubicin-induced senescent MLO-Y4 mouse osteoid cells (MTT); assay type: cell-based; settings: MLO-Y4, 72 h, senescent cells induced by 100 nM doxorubicin, co-incubation 3 days, read-out: MOL-Y4 IC50
Protocol: MOL-Y4 cells were cultured in MEM culture medium (supplemented with 10% FBS, 1% PS).
(§1) The experimental steps for testing the effects of compounds on the viability of MOL-Y4 senescent cells were as follows. MOL-Y4 cells were seeded in a 96-well plate at 20,000 cells/well. After overnight, 100 nM doxorubicin was added to each well and incubated for 3 days. Then the medium was replaced with normal culture medium. After 1 day of incubation, the culture medium was replaced with 100 nM doxorubicin and incubated for 3 days to successfully induce senescence of MOL-Y4 cells. Subsequently, different concentrations of compounds were added (40 μM was the highest concentration, and diluted according to ¼, a total of 7 concentrations), and after co-incubation for 3 days, 10 μl of MTT (5 mg/ml) was added to each well and incubated for 4 hours. DMSO (150 μl) was added to each well after aspirating the culture medium.

WI-38 senescent cells = experiment: Viability of doxorubicin-induced senescent WI-38 human fibroblasts (MTT); assay type: cell-based; settings: WI-38, 72 h, senescent cells induced by 200 nM doxorubicin, co-incubation 3 days
Protocol: WI-38 cells were cultured in DMEM (high glucose, 4.5 g/L) culture medium (supplemented with 10% FBS, 1% PS).
as §1, with “experimental testing” for “experimental”, “for” for “for testing”, “WI-38” for “MOL-Y4”, “200” for “100”

[1] = Acta Pharmacologica Sinica, 2018, 39, 787-801, cited from earlier work
OCI-AML3 cells = experiment: Viability of human acute myeloid leukemia cells OCI-AML3 (CCK8); assay type: cell-based; settings: OCI-AML-3, 72 h, incubation 3 days
Protocol: (§2) OCI-AML3 cells, suspension cells, were cultured in RPIM1640+10% FBS+1% PS culture medium at 37° C. and 5% CO2. OCI-AML3 was seeded in a 96-well plate at 20,000 cells/well, and different concentrations of compounds were added (40 μM was the highest concentration, diluted according to ¼, a total of 7 concentrations). After incubation for 3 days, 10 μl CCK8 reagent was added to each well. After incubation for 2 hours, OD450 was detected by a microplate reader, then the effect of the compound on cell viability, IC50 value was calculated.

[2] = test system: mitochondrial respiratory chain complex I; settings: ACS Chemical Biology, 2013, 8 (1), 257-267; cited from earlier work
NB-1 cells = experiment: Viability of human neuroblastoma cells NB-1 (CCK8); assay type: cell-based; settings: NB1, 72 h, incubation 3 days
Protocol: as §2, with “NB-1” for “OCI-AML3”, “μL” for “μl”

[3] = Oral pharmacokinetics of Compound A4-1a and Arctigenin in ICR mice (plasma, liver, colon); assay type: in vivo, mouse; settings: oral 30 mg/kg, 1-8 h
Protocol: Arctigenin and Compound A4-1a were administered orally at 30 mg/kg to overnight-fasted ICR mice (male, n=3/time point), respectively. The mice were fed 2 hours after administration. Samples were collected before administration and 1 h, 2 h, 4 h, and 8 h after administration. Blood was collected in centrifuge tubes pretreated with heparin sodium and bis(4-nitrophenyl)phosphate (BNPP). After centrifugation at 11,000 rpm for 5 min at 4° C., plasma was obtained and stored at −80° C. Next, 100 […] of plasma sample, precipitated, vortexed for 1 min, and centrifuged (11,000 rpm) for 5 min. A mixture of 20 […] of methanol/acetonitrile (1:1, v/v) was taken to analyze the concentration of the compound by LC-MS/MS. Liver tissue was stored at −80° C. until analysis. After removal of contents, the colon was quickly washed with cold saline containing BNPP and stored at −80° C. until analysis. Analysis method: After 10 times the weight of MeOH/ACN (1:1, v/v) was added to the tissue samples, the homogenate was obtained by homogenizing for 120 s with a homogenizer at 50 Hz and then centrifuged (11000 rpm) for 5 min, and the supernatant was collected. 20 μL of the supernatant was redissolved in 20 μL of ACN/H2O (1:1, v/v), and the compound concentration was analyzed in LC-MS/MS.

[4] = target: Mitochondrial Respiratory Complex I (Complex I) (Mus musculus, UniProt P03888+Q91WD5+Q9DC70); experiment: Inhibitory activity on mitochondrial respiratory Complex I (NADH activity, mitochondria from mouse heart tissue); assay type: biochemical; settings: NADH 50 μM, read at 340 nm, 30 μg mouse heart mitochondrial protein
Mitochondrial Respiratory Complex I (Complex I), sequence (P03888 whole entry): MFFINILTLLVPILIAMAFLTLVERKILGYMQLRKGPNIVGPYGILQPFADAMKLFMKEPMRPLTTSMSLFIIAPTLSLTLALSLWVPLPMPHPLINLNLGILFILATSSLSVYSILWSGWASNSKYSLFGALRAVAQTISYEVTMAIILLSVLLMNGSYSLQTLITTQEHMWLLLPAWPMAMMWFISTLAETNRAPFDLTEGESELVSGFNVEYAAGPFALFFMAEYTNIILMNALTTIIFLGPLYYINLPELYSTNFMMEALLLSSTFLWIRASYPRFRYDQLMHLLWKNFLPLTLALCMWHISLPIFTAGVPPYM
Mitochondrial Respiratory Complex I (Complex I), sequence (Q91WD5 34-463): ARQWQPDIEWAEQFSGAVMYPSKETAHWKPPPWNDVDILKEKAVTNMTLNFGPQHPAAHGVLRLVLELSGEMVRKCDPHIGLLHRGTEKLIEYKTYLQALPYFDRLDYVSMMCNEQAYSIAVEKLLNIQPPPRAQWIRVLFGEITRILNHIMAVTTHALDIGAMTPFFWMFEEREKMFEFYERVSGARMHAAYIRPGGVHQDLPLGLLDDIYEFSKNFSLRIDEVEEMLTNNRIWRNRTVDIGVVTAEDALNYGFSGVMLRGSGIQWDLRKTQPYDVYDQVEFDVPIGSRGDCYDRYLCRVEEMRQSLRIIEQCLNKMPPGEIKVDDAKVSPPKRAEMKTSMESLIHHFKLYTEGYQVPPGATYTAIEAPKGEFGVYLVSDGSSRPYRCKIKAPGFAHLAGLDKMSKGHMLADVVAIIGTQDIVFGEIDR
Mitochondrial Respiratory Complex I (Complex I), sequence (Q9DC70 36-224): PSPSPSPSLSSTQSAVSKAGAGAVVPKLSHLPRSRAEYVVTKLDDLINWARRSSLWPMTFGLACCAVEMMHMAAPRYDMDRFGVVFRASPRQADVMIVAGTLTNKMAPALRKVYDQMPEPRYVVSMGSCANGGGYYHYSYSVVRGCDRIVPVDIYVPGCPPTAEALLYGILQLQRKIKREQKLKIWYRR
Protocol: Mitochondria were extracted from mouse heart tissue. […] of solution A (0.22M mannitol, 0.07M sucrose, 0.02M HEPES, 2 mM Tris-HCl, 1 mM EDTA, pH 7.2, 0.4% BSA) was added to the heart tissue. The tissue was cut up and then washed three times with solution A to remove blood and connective tissue, then homogenized using a glass homogenizer about 30 times. The suspension was centrifuged at 3000 g for 1.5 min, and the supernatant was retained. The precipitate was resuspended in solution A with protease inhibitor and re-centrifuged to collect the supernatant. The supernatants from two collections were mixed for the next step. The supernatant was centrifuged at 17500 g for 2.5 min and the supernatant was discarded. The precipitate was resuspended in solution A with protease inhibitor, centrifuged at 17500 g for 4.5 min, resuspended in solution B (2.5 mM potassium phosphate, 5 mM MgCl2 pH 7.2) and repeatedly frozen and thawed to obtain a solution of the mitochondrial complex for subsequent assay. To measure the NADH activity of Complex I, 2.5 mL of reaction solution containing 50 mM HEPES, 5 mM MgCl2 pH 7.5 and 30 μg of mitochondrial protein from the above process was prepared. The compound to be detected was added and equilibrated for 5 minutes, and then was dispensed into each well. Finally, NADH (50 μM) was quickly added, and data at […] were read every 30 sec for a total of 15 minutes. Calculation: the NADH reaction rates for different compounds were calculated, then the inhibition rate (compound reaction rate/control reaction rate×100) was calculated, and the IC50 value of the compound was finally calculated.

Row | Structure (SMILES) | IC50 (OCI-AML3 cells) | IC50 (NB-1 cells) | IC50 [4] | further results
1 | CC1(C)CCC(c2ccc(Cl)cc2)=C(CN2CCN(c3ccc(C(=O)NS(=O)(=O)c4ccc(N[C@H](CCN5CCOCC5)CSc5ccccc5)c(S(=O)(=O)C(F)(F)F)c4)cc3)CC2)C1 [ABT263, reference compound] | – | – | – | IC50 (MLO-Y4 senescent cells): 235 nM; IC50 (WI-38 senescent cells): 5600 nM
2 | COc1cc(C[C@H]2C(=O)OC[C@@H]2Cc2ccc(OC)c(OC)c2)ccc1O [Arctigenin] | 589 nM | 2380 nM | – | metabolism after oral administration [1]: easily metabolized after oral administration; bioavailability ([1]; oral): low bioavailability; pharmacokinetic properties ([1]; oral): poor pharmacokinetic properties; inhibition of mitochondrial respiratory chain complex I [2]: moderately potent and selective inhibitor
3 | COc1cc(C[C@@]2(C)C(=O)OC[C@@H]2Cc2ccc(OC)c(OC)c2)ccc1O [Compound A4-1a, (3R,4R)-4-(3,4-dimethoxybenzyl)-3-(4-hydroxy-3-methoxybenzyl)-3-methyldihydrofuran-2 (3H)-one] | 81 nM | 424 nM | 507 nM | IC50 (MLO-Y4 senescent cells): 40 nM; drug concentrations in plasma and tissues compared with Arctigenin [3]: significantly higher drug concentrations in plasma and tissues; IC50 (WI-38 senescent cells): 38 nM
4 | COc1cc(C[C@]2(F)C(=O)OC[C@@H]2Cc2ccc(OC)c(OC)c2)ccc1O [Compound A4-1b] | – | – | 1270 nM | –
5 | COc1cc(C[C@@]2(F)C(=O)OC[C@@H]2Cc2ccc(OC)c(OC)c2)ccc1O [Compound A4-1c] | – | – | 185 nM | –
6 | COc1cc(C[C@@]2(Cl)C(=O)OC[C@@H]2Cc2ccc(OC)c(OC)c2)ccc1O [Compound A4-1d] | 169 nM | 546 nM | – | –
7 | COc1cc(C[C@@]2(CCl)C(=O)OC[C@@H]2Cc2ccc(OC)c(OC)c2)ccc1O [Compound A4-1e] | – | – | 473 nM | IC50 (MLO-Y4 senescent cells): 150 nM; IC50 (WI-38 senescent cells): 1000 nM
8 | COc1cc(C[C@@]2(CO)C(=O)OC[C@@H]2Cc2ccc(OC)c(OC)c2)ccc1O [Compound A4-1i] | 91 nM | 433 nM | – | –
9 | COc1ccc(C[C@H]2COC(=O)[C@@H]2Cc2ccc(O)c(OCCc3ccccc3)c2)cc1OC [Compound B9-1a, (3R,4R)-4-(3,4-dimethoxybenzyl)-3-(4-hydroxy-3-phenylethoxybenzyl)dihydrofuran-2 (3H)-one] | – | – | 54 nM | –
10 | [2H]C([2H])([2H])Oc1cc(C[C@H]2C(=O)OC[C@@H]2Cc2ccc(OC)c(OC)c2)ccc1O [Compound B9-1d] | 602 nM | – | 696 nM | –
11 | COc1ccc(C[C@H]2COC(=O)[C@@H]2Cc2ccc(O)c(OCC(F)(F)F)c2)cc1OC [Compound B9-1e] | 274 nM | 175 nM | – | –
12 | COc1ccc(C[C@H]2COC(=O)[C@@H]2Cc2ccc(O)c(OCc3ccccc3)c2)cc1OC [Compound B9-1p] | – | – | 465 nM | –
13 | COc1ccc(C[C@H]2COC(=O)[C@@H]2Cc2ccc(O)c(OCCc3ccc(C(F)(F)F)cc3)c2)cc1OC [Compound B9-1q] | – | – | 64 nM | –
14 | COc1ccc(C[C@H]2COC(=O)[C@@H]2Cc2ccc(O)c(OCCn3cccc3)c2)cc1OC [Compound B9-1r] | – | – | 316 nM | –
15 | COc1ccc(C[C@H]2COC(=O)[C@@H]2Cc2ccc(O)c(OCC(O)c3ccccc3)c2)cc1OC (stereo partly shown) [Compound B9-1u] | – | – | 564 nM | –
16 | COc1ccc(C[C@H]2COC(=O)[C@@H]2Cc2ccc(O)c(OCCCc3ccccc3)c2)cc1OC [Compound B9-1v] | – | – | 34 nM | –
17 | COc1ccc(C[C@H]2COC(=O)[C@@H]2Cc2ccc(O)c(OCC(O)c3ccc(C(F)(F)F)cc3)c2)cc1OC (stereo partly shown) [Compound B9-1x] | – | – | 650 nM | –
18 | COc1ccc(C[C@H]2COC(=O)[C@]2(C)Cc2ccc(O)c(OCCc3ccccc3)c2)cc1OC [Compound B11-1a, (3R,4R)-4-(3,4-dimethoxybenzyl)-3-(4-hydroxy-3-phenylethoxybenzyl)-3-methyldihydrofuran-2 (3H)-one] | – | – | 646 nM | –
19 | COc1ccc(C[C@H]2COC(=O)[C@]2(C)Cc2ccc(O)c(OCC(F)(F)F)c2)cc1OC [Compound B11-1b] | 47 nM | 626 nM | 668 nM | –
20 | COc1ccc(C[C@H]2COC(=O)[C@]2(C)Cc2ccc(O)c(OCC(O)c3ccc(C(F)(F)F)cc3)c2)cc1OC (stereo partly shown) [Compound B11-1c] | 289 nM | 446 nM | – | –
21 | COc1cc(C[C@H]2COC(=O)[C@]2(C)Cc2ccc(O)c(OC)c2)ccc1O [Compound B11-1e] | – | – | 1370 nM | –
22 | COc1cc(C[C@@]2(C)C(=O)OC[C@@H]2Cc2ccc3c(c2)OCO3)ccc1O [Compound B11-1f] | – | – | 420 nM | –
23 | COc1ccc(C[C@H]2COC(=O)[C@]2(C)Cc2ccc(OC)c(OC)c2)cc1OC [Compound B11-1h] | – | – | 13200 nM | –
